Test results published in US5945561A, “Retinoid-like compounds” (Bristol-Myers Squibb Company, priority 1998, dated 1999).

Legend:
[1] = tested on: HL60 cells; assay: Differentiation and apoptosis of HL60 cells (NBT staining); assay type: cell-based; conditions: culture up to 9 days; for EC50 (culture day necessary to convert cells into a differentiated or apoptosed phenotype): HL60 cells, 1 μm compound, NBT staining
From the text: At the end of each day of the culture period, cells were washed and stained with NBT (nitro blue tetrazolium) and counted.

[2] = tested on: trauma-induced caecal adhesions in female Wistar rat; assay: Trauma-induced caecal adhesion model in rats (oral treatment once daily for 7 days, examined on seventh postoperative day); assay type: in vivo; conditions: 1 × daily for 7 days, N = 5, female Wistar rats; for Mean number of adhesions/rat +/- SD: vehicle (peanut oil) 15.4 +/- 4.8; for Mean Adhesion Severity/Rat +/- SD: vehicle (peanut oil) 39.2 +/- 15
Experimental: Models of peritoneal adhesions induced by surgical trauma have been used to predict the clinical activity of a number of marketed anti-adhesion barrier devices. One such model is the trauma-induced caecal adhesion model in rats.
Adult female Wistar rats were used in our studies. The trauma induction was carried out using aseptic conditions in animals anesthetized with a mixture of Ketamine (100 mg/kg) and Rompun (10 mg/kg) given IP. A 2 cm midline abdominal incision was made and the caecum was exteriorized. Both sides of the caecum were abraded with a dry gauze until there was evidence of punctate bleeding. After replacing the organ in the abdominal cavity, the incision was closed. Trauma to the caecum produces fibrous scar tissue or adhesions to adjacent organs, peritoneal wall, or the omentum. Animals were treated with test compound orally. Oral treatments were administered once daily for up to 7 days.
On the seventh postoperative day, the animals were sacrificed and the peritoneal cavity was exposed and examined for adhesions. Three criteria that were used to evaluate the adhesions are: severity of the adhesions, extent or area of the ceacum involved with adhesions and the number of adhesions formed in each animal. Statistical analysis of the data was performed using students' T test. The following scoring system was used:
1.0 = easily separable, filmy, non-vascularized adhesions
covering 25% of the caecum;
2.0 = dense adhesions separated by blunt dissection and in-
volving 50% of the caecum;
3.0 = dense, fibrous, vascularized adhesions requiring sharp
dissection and covering 75% of the caecum;
4.0 = severe, dense, vascularized adhesions unable to
separate without tearing the adjacent membranes and
covering greater than 75% of the caecum.
The Dose Dependent Effect of Orally Dosed Test Compound on Trauma-induced Ceacal Adhesions in Female Wistar Rat

For `CC1(C)CC=C(c2ccccc2)c2cc3cc(-c4ccc(C(=O)O)cc4)ccc3cc21` [Example 1], the “differentiation and apoptosis of HL60 cells, comparison with t-RA” value ([1]; 1 μm, result in words) was “comparable to t-RA in this assay”, the “EC50 (culture day necessary to convert cells into a differentiated or apoptosed phenotype)” value [1] was 6.0 days and the “Mean number of adhesions/rat +/- SD” value ([2]; 3 mg/kg oral) was 14.6 +/- 2.7. For the same molecule, the “Mean Adhesion Severity/Rat +/- SD” value ([2]; 3 mg/kg oral) was 36 +/- 7.0, the “Mean number of adhesions/rat +/- SD” value ([2]; 10 mg/kg oral) was 12.2 +/- 1.6 and the “Mean Adhesion Severity/Rat +/- SD” value ([2]; 10 mg/kg oral) was 30.2 +/- 5.5. For the same molecule, the “Mean number of adhesions/rat +/- SD” value ([2]; 25 mg/kg oral, * p = 0.03) was 6.8 +/- 2.4 and the “Mean Adhesion Severity/Rat +/- SD” value ([2]; 25 mg/kg oral, * p = 0.03) was 14.8 +/- 5.6.

With `CC1=C(/C=C/C(C)=C/C=C/C(C)=C/C(=O)O)C(C)(C)CCC1` [tRA, all-trans retinoic acid, reference compound] the “EC50 (culture day necessary to convert cells into a differentiated or apoptosed phenotype)” value [1] was 3.2 days.
